{"source": "patent US6355799B1", "about": "“Substituted benzene compounds, process for their preparation, and herbicidal and defoliant compositions containing them” (ISK Americas Incorporated, priority 1997, dated 2002)", "format_in_all_cases": "in vivo", "key": {"[1]": {"tested_on": "field corn (Zea mays L., var. Dekalb 535, CORN)", "experiment": "Pre-emerge test, crop safety", "conditions": "crop damage rating 0-100, 14 days after application", "method_in_brief": "(§1)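 Applied at 15–1000 g ai/ha from acetone in 187 l/ha spray volume. Post-emergence applications included 0.25% v/v non-ionic surfactant and reached plants sown 8–21 days before. Pre-emergence applications were incorporated by surface watering. Efficacy or crop damage was rated on a 0–100 scale after 14 days.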"}, "[2]": {"tested_on": "soybean (Glycine max L., var. Pella 86, SOY)", "experiment": "Pre-emerge test, crop safety", "conditions": "crop damage rating 0-100, 14 days after application", "method_in_brief": "as §1"}, "[3]": {"tested_on": "upland rice (Oryza sp., var. Tebonnet, RICE)", "experiment": "Pre-emerge test, crop safety", "conditions": "crop damage rating 0-100, 14 days after application", "method_in_brief": "as §1"}, "[4]": {"tested_on": "barnyardgrass (Echinochloa crus-galli, ECHCG)", "experiment": "Post-emerge test, greenhouse herbicide activity screening", "conditions": "14 days after application; for phytotoxicity rating ECHCG: post-emerge, rating scale 0-100", "method_in_brief": "(§2)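 Compounds in acetone were track-sprayed at 187 l/ha, 15–1000 g ai/ha, onto sandy loam pots. Pre-emerge seeds were sown one day before spraying, with surface watering afterwards. Post-emerge plants were at the 2–3 leaf stage and sprayed with 0.25% v/v non-ionic surfactant. Injury was rated 0–100 at 14 days.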"}, "[5]": {"tested_on": "common ragweed (Ambrosia artemisizfolia L., AMBEL)", "experiment": "Post-emerge test, greenhouse herbicide activity screening", "conditions": "14 days after application; for phytotoxicity rating AMBEL: post-emerge, rating scale 0-100; for Post-emerge Herbicidal Activity AMBEL: phytotoxicity rating 0-100 (0 no damage, 100 complete death)", "method_in_brief": "as §2"}, "[6]": {"tested_on": "lambsquarters (Chenopodium album, CHEAL)", "experiment": "Post-emerge test, greenhouse herbicide activity screening", "conditions": "14 days after application; for phytotoxicity rating CHEAL: post-emerge, rating scale 0-100", "method_in_brief": "as §2"}, "[7]": {"tested_on": "redroot pigweed (Amaranthus retroflexus, AMARE)", "experiment": "Post-emerge test, greenhouse herbicide activity screening", "conditions": "14 days after application; for phytotoxicity rating AMARE: post-emerge", "method_in_brief": "as §2"}, "[8]": {"tested_on": "velvetleaf (Abutilon theophrasti, ABUTH)", "experiment": "Post-emerge test, greenhouse herbicide activity screening", "conditions": "14 days after application; for phytotoxicity rating ABUTH: post-emerge, rating scale 0-100", "method_in_brief": "as §2"}, "[9]": {"tested_on": "field corn (Zea mays L., var. Dekalb 535, CORN)", "experiment": "Post-emerge test, crop safety", "conditions": "post-emerge, 14 days after application, rating scale 0-100", "method_in_brief": "(§3)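 Herbicidal damage is scored 0 (none) to 100 (complete plant death) two weeks after a simulated field spray. Rates span 15–1000 g ai/ha, delivered in acetone at 187 l/ha. For post-emergence treatments, plants have 2–3 leaves and the spray carries 0.25% v/v non-ionic surfactant.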"}, "[10]": {"tested_on": "soybean (Glycine max L., var. Pella 86, SOY)", "experiment": "Post-emerge test, crop safety", "conditions": "14 days after application, rating scale 0-100", "method_in_brief": "as §3"}, "[11]": {"tested_on": "upland rice (Oryza sp., var. Tebonnet, RICE)", "experiment": "Post-emerge test, crop safety", "conditions": "post-emerge, 14 days after application, rating scale 0-100", "method_in_brief": "as §3"}, "[12]": {"tested_on": "cocklebur (Xanthium strumarium, XANST)", "experiment": "Pre-emerge test, greenhouse herbicide activity screening", "conditions": "14 days after application, rating scale 0-100"}, "[13]": {"tested_on": "common ragweed (Ambrosia artemisizfolia L., AMBEL)", "experiment": "Pre-emerge test, greenhouse herbicide activity screening", "conditions": "pre-emerge, rated 14 days after application, 0 = no damage, 100 = complete death", "method_in_brief": "as §3"}, "weed species": {"tested_on": "weed species", "experiment": "Standard greenhouse herbicide activity screening, overall statements on weeds", "conditions": "comparison with compound 2 of Japanese Pat. No. Toku Kai Hei 5-25144 (Table XIX)", "description": "A standard greenhouse herbicide activity screening system was used to evaluate the herbicidal efficacy and crop safety of these test compounds. Seven broadleaf weed species including redroot pigweed (Amaranthus retroflexus, AMARE, velvetleaf (Abutilon theophrasti, ABUTH), sicklepod (Cassia obtusifolia, CASOB), ivyleaf morningglory (Ipomoea hederacea, IPOHE), lambsquarters (Chenopodium album, CHEAL), common ragweed (Ambrosia artemisizfolia L., AMBEL), and cocklebur (Xanthium strumarium, XANST) were used as test species. Four grass weed species including green foxtail (Setaria viridis, SETVI), barnyardgrass (Echinochloa crus-galli, ECHCG), johnsongrass (Sorghum halepense, SORHA), and large crabgrass (Digitaria sanguinalis, DIGSA) were also used. In addition, three crop species, field corn (Zea mays L., var. Dekalb 535, CORN), soybean (Glycine max L., var. Pella 86, SOY), and is upland rice (Oryza sp., var. Tebonnet, RICE) were included.\nAll plants were grown in 10 cm square plastic pots which were filled with a sandy loam soil mix. For pre-emerge tests, seeds were planted one day prior to application of the test compounds. For post-emerge tests, seeds were planted 8-21 days prior to the test to allow emergence and good foliage development prior to application of the test substances. […]\nAt 14 days after application of the test materials, phytotoxicity ratings were recorded. […]"}}, "data": [{"smiles": "COC(=O)Nc1c(OC)c(Cl)cc(F)c1-n1c(=O)cc(C(F)(F)F)n(C)c1=O", "note": "[Compound 4-1, 3-(4chloro-6-fluoro-3-methoxy-2-methoxycarbonylaminophenyl)-1-methyl-6-trifluoromethyl-2,4(1H, 3H)-pyrimidinedione]", "values": [{"measurement": "Pre-emerge Herbicidal Activity CORN", "setting": "[1]; 63 g ai/ha", "result": 10}, {"measurement": "Pre-emerge Herbicidal Activity CORN", "setting": "[1]; 250 g ai/ha", "result": 80}, {"measurement": "Pre-emerge Herbicidal Activity SOY", "setting": "[2]; 63 g ai/ha", "result": 70}, {"measurement": "Pre-emerge Herbicidal Activity SOY", "setting": "[2]; 250 g ai/ha", "result": 100}, {"measurement": "Pre-emerge Herbicidal Activity RICE", "setting": "[3]; 63 g ai/ha", "result": 50}, {"measurement": "Pre-emerge Herbicidal Activity RICE", "setting": "[3]; 250 g ai/ha", "result": 95}, {"measurement": "phytotoxicity rating ECHCG", "setting": "[4]; 63 g ai/ha", "result": 0}, {"measurement": "phytotoxicity rating ECHCG", "setting": "[4]; 250 g ai/ha", "result": 0}, {"measurement": "phytotoxicity rating AMBEL", "setting": "[5]; 63 g ai/ha", "result": 40}, {"measurement": "phytotoxicity rating AMBEL", "setting": "[5]; 250 g ai/ha", "result": 90}, {"measurement": "phytotoxicity rating CHEAL", "setting": "[6]; 63 g ai/ha", "result": 60}, {"measurement": "phytotoxicity rating CHEAL", "setting": "[6]; 250 g ai/ha", "result": 98}, {"measurement": "phytotoxicity rating AMARE", "setting": "[7]; 63 g ai/ha, rating scale 0-100 (0 no damage, 100 complete death)", "result": 50}, {"measurement": "phytotoxicity rating AMARE", "setting": "[7]; 250 g ai/ha, rating scale 0-100", "result": 95}, {"measurement": "phytotoxicity rating ABUTH", "setting": "[8]; 63 g ai/ha", "result": 100}, {"measurement": "phytotoxicity rating ABUTH", "setting": "[8]; 250 g ai/ha", "result": 100}, {"measurement": "phytotoxicity rating CORN (crop damage)", "setting": "[9]; 63 g ai/ha", "result": 10}, {"measurement": "phytotoxicity rating CORN (crop damage)", "setting": "[9]; 250 g ai/ha", "result": 20}, {"measurement": "phytotoxicity rating SOY (crop damage)", "setting": "[10]; 63 g ai/ha", "result": 50}, {"measurement": "phytotoxicity rating SOY (crop damage)", "setting": "[10]; 250 g ai/ha", "result": 100}, {"measurement": "phytotoxicity rating RICE (crop damage)", "setting": "[11]; 63 g ai/ha", "result": 20}, {"measurement": "phytotoxicity rating RICE (crop damage)", "setting": "[11]; 250 g ai/ha", "result": 50}]}, {"smiles": "COc1c(Cl)cc(F)c(-n2c(=O)cc(C(F)(F)F)n(C)c2=O)c1N", "note": "[Compound 1-4, 3-(2-amino-4-chloro-6-fluoro-3-methoxyphenyl)-1-methyl-6-trifluoromethyl-2,4(1H, 3H)-pyrimidinedione]", "values": [{"measurement": "phytotoxicity rating XANST", "setting": "[12]; 3.9 g ai/ha", "result": 0}, {"measurement": "phytotoxicity rating XANST", "setting": "[12]; 7.8 g ai/ha", "result": 0}, {"measurement": "phytotoxicity rating XANST", "setting": "[12]; 15.6 g ai/ha", "result": 20}, {"measurement": "phytotoxicity rating XANST", "setting": "[12]; 31.3 g ai/ha", "result": 10}, {"measurement": "phytotoxicity rating XANST", "setting": "[12]; 62.5 g ai/ha", "result": 50}, {"measurement": "phytotoxicity rating XANST", "setting": "[12]; 125 g ai/ha", "result": 50}, {"measurement": "phytotoxicity rating XANST", "setting": "[12]; 250 g ai/ha", "result": 90}, {"measurement": "Pre-emerge Herbicidal Activity AMBEL (phytotoxicity rating, scale 0-100)", "setting": "[13]; 63 g ai/ha", "result": 100}, {"measurement": "Pre-emerge Herbicidal Activity AMBEL (phytotoxicity rating, scale 0-100)", "setting": "[13]; 250 g ai/ha", "result": 100}, {"measurement": "pest or weed control at 63 g/ha", "setting": "[4]; Echinochloa crus-galli, post-emergence, 336 h, 63 g ai/ha, phytotoxicity rating 0-100 (0 no damage, 100 complete death), read-out: Post-emerge Herbicidal Activity ECHCG", "result": 0, "unit": "%"}, {"measurement": "pest or weed control at 250 g/ha", "setting": "[4]; Echinochloa crus-galli, post-emergence, 336 h, 250 g ai/ha, phytotoxicity rating 0-100 (0 no damage, 100 complete death), read-out: Post-emerge Herbicidal Activity ECHCG", "result": 40, "unit": "%"}, {"measurement": "Post-emerge Herbicidal Activity AMBEL", "setting": "[5]; 63 g ai/ha", "result": 50}, {"measurement": "Post-emerge Herbicidal Activity AMBEL", "setting": "[5]; 250 g ai/ha", "result": 90}, {"measurement": "pest or weed control at 63 g/ha", "setting": "[6]; Chenopodium album, post-emergence, 336 h, 63 g ai/ha, phytotoxicity rating 0-100 (0 no damage, 100 complete death), read-out: Post-emerge Herbicidal Activity CHEAL", "result": 60, "unit": "%"}, {"measurement": "pest or weed control at 250 g/ha", "setting": "[6]; Chenopodium album, post-emergence, 336 h, 250 g ai/ha, phytotoxicity rating 0-100 (0 no damage, 100 complete death), read-out: Post-emerge Herbicidal Activity CHEAL", "result": 95, "unit": "%"}, {"measurement": "pest or weed control at 63 g/ha", "setting": "[7]; Amaranthus retroflexus, post-emergence, 336 h, 63 g ai/ha, phytotoxicity rating 0-100 (0 no damage, 100 complete death), read-out: Post-emerge Herbicidal Activity AMARE", "result": 30, "unit": "%"}, {"measurement": "pest or weed control at 250 g/ha", "setting": "[7]; Amaranthus retroflexus, post-emergence, 336 h, 250 g ai/ha, phytotoxicity rating 0-100 (0 no damage, 100 complete death), read-out: Post-emerge Herbicidal Activity AMARE", "result": 95, "unit": "%"}, {"measurement": "pest or weed control at 63 g/ha", "setting": "[8]; Abutilon theophrasti, post-emergence, 336 h, 63 g ai/ha, phytotoxicity rating 0-100 (0 no damage, 100 complete death), read-out: Post-emerge Herbicidal Activity ABUTH", "result": 100, "unit": "%"}, {"measurement": "pest or weed control at 250 g/ha", "setting": "[8]; Abutilon theophrasti, post-emergence, 336 h, 250 g ai/ha, phytotoxicity rating 0-100 (0 no damage, 100 complete death), read-out: Post-emerge Herbicidal Activity ABUTH", "result": 100, "unit": "%"}, {"measurement": "pre-emerge herbicidal activity", "setting": "weed species", "result": "high level of activity"}]}]}
